Legend:
RXFP2 = target: T1, RXFP2 (Homo sapiens, UniProt Q8WXD0); assay: HTRF cAMP assay in HEK293T cells stably expressing RXFP2 (HEK-RXFP2); assay type: cell-based; details: for % EFF vs. 100 nM INSL3 (c): normalized to 100 nM INSL3 cAMP response
T1 construct: expressed in transfected cells
Outline: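 HEK-RXFP2 cells in serum-free DMEM were treated with compound up to 25 μM for 1 h at 37°C, and cAMP was read by HTRF immunoassay. Condition (a): 20,000 cells/well, 200 μM IBMX, normalized to 1 nM INSL3. Condition (b): 10,000 cells/well, 1 nM INSL3. Condition (c): 7,500 cells/well, no IBMX, 100 nM INSL3.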

primary HCO cells = assay: OsteoImage mineralization assay in primary HCO cells; assay type: cell-based, human; details: 14 days
Procedure: The biological activity of the RXFP2 agonists was tested in primary HCO cells (ScienCell Research Laboratories, San Diego, CA) by measuring their ability to induce osteoblast mineralization. A fluorescent-based assay (OSTEOIMAGE™ Mineralization Assay, Lonza, Switzerland) was used that measures hydroxyapatite, which is the main mineral component of bone. For this assay, HCO cells were seeded in 0.1% gelatin-coated 96 well black-walled flat-bottom clear plates at 7,000 cells/well in 100 μL/well of growth medium (DMEM, 10% FBS, 1× Pen/Strep) and allowed to attach overnight at 37° C. and 5% CO2. The next day, growth medium was changed to 100 μL/well of mineralization medium (growth medium+10 mM β-glycerophosphate, 50 μg/ml ascorbic acid, 10 nM dexamethasone), along with the respective treatments. Cells were treated with 1 μL/well of compound (1, 3, or 5 μM) or vehicle (serum-free DMEM, 0.05% DMSO). Medium and treatments were replaced every 2-3 days and cells were incubated at 37° C. and 5% CO2 for 14 days. Hydroxyapatite deposits were evaluated using the OSTEOIMAGE™ Mineralization Assay (Lonza, Switzerland). At treatment day 14, cells were rested 30 minutes at room temperature for equilibration, washed with 200 μL/well PBS, and fixed in 100 μL/well 4% formaldehyde for 15 minutes. Cells were washed once with 200 μL/well assay wash buffer and 100 μL/well of assay staining reagent was added as per manufacturer's protocol. Cells were incubated at room temperature for 30 minutes, protected from light. After staining, cells were washed 3 times with 200 μL/well wash buffer and wells were filled with a final 200 μL/well wash buffer. Mineralization was quantified using a CLARIOstar plate reader (BMG Labtech, Germany) and representative images of the hydroxyapatite bone-like nodules were captured using a fluorescence microscope (Nikon Eclipse TS100 attached to an Olympus DP70 camera). […] Mineralization activity induced by compounds was normalized to DMSO vehicle as 100% mineralization. […]

[1] = tested on: primary human calvarial osteoblasts (HCO); assay: CellTiter-Glo cytotoxicity assay in HCO cells; assay type: cell-based; details: 24 h
Procedure: Cytotoxicity induced by the compounds in HEK293T cells and primary human calvarial osteoblasts (HCO) (ScienCell Research Laboratories, San Diego, CA) were tested using the […]-GLO™ Luminescent Cell Viability Assay (Promega, Madison, WI). This is a luminescence-based assay that determines viable cells by measuring cellular adenosine triphosphate (ATP) production. The luciferase enzyme requires ATP to catalyze the conversion of beetle luciferin to oxyluciferin and light. Thus, luciferase activity is proportional to ATP accumulation in the cells. For this assay, 96-well flat-bottom opaque plates seeded with HEK293T cells at 5,000 cells/well and HCO cells at 3,000 cells/well in 100 μL/well of growth medium (DMEM, 10% FBS, 1× Penicillin/Streptomycin). After incubating overnight at 37° C., 5% CO2 to allow attachment, cells were treated with 1 μL/well of compound (25-0.1 μM) or DMSO vehicle and incubated an additional 24 hours. Then cells were equilibrated for 30 minutes at room temperature and 100 μL/well of […]-GLO™ Reagent was added. Plates were placed on an orbital shaker for 2 minutes and incubated at room temperature for 10 minutes to stabilize the luminescent signal, which was read immediately after on a CLARIOstar plate reader (BMG Labtech, Germany). […] The HEK293T results represent the means±SEM of 3 technical replicates. The HCO results represent the means±SEM of 3 independent experiments.

[2] = condition (c): 7,500 cells/well, IBMX omitted
[3] = lower concentrations than 25 μM

T1 sequence (Q8WXD0 whole entry): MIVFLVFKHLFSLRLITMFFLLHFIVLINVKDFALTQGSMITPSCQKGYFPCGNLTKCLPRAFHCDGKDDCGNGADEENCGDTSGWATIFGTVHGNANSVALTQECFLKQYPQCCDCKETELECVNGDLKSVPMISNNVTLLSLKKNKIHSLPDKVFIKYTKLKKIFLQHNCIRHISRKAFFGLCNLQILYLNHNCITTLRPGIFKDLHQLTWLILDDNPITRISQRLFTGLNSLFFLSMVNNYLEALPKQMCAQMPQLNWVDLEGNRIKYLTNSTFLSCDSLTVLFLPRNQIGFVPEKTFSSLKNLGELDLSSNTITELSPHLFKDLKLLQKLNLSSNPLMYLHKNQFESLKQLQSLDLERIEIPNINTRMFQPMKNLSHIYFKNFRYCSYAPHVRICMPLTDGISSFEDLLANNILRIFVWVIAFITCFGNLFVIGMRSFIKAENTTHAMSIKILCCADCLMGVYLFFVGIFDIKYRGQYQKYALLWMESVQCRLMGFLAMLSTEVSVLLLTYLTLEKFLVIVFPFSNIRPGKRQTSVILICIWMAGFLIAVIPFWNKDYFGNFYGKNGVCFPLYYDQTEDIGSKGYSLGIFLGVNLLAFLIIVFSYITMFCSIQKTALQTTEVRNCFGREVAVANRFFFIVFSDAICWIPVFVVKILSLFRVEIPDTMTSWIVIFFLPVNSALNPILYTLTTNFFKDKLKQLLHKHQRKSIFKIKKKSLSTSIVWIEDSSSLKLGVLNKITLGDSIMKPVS

Row | Compound | activity in the HTRF cAMP screen (RXFP2; compared with Examples 187, 158, 153) | EC50 (RXFP2; condition (b): 10,000 cells/well, IBMX 200 μM) [µM] | % EFF vs. 1 nM INSL3 (b) (RXFP2; condition (b): 10,000 cells/well, IBMX 200 μM, normalized to 1 nM INSL3 cAMP response) | EC50 (RXFP2; [2]) [µM] | % EFF vs. 100 nM INSL3 (c) (RXFP2; [2]) | mineralization (hydroxyapatite) vs. DMSO vehicle (primary HCO cells; 1, 3, or 5 μM) | mineralization (hydroxyapatite) vs. DMSO vehicle (primary HCO cells; 5 μM) | cytotoxicity ([1]; 25 μM) | cytotoxicity [1, 3]
1 | O=C1Nc2ccc(-c3cccc(C(F)(F)F)c3)cc2C(=O)N2CCN(C(=O)COc3ccc(OC(F)(F)F)cc3Br)C[C@@H]12 [Example 123, (S)-2-(2-(2-bromo-4-(trifluoromethoxy)phenoxy)acetyl)-8-(3-(trifluoromethyl)phenyl)-1,3,4,12a-tetrahydrobenzo[e]pyrazino[1,2-a][1,4]diazepine-6,12 (2H, 11H)-dione] | weaker activity | 0.018 to 0.0233 | 113.66-166.88% | 0.0462 to 0.0737 | 38.35-49.8% | does not seem to increase mineralization |  |  | 
2 | O=C1Nc2ccc(-c3cc(C(F)(F)F)cc(C(F)(F)F)c3)cc2C(=O)N2CCN(C(=O)COc3ccc(OC(F)(F)F)cc3Br)C[C@@H]12 [Example 158, (S)-8-(3,5-Bis(trifluoromethyl)phenyl)-2-(2-(2-bromo-4-(trifluoromethoxy)phenoxy)acetyl)-1,3,4,12a-tetrahydrobenzo[e]pyrazino[1,2-a][1,4]diazepine-6,12 (2H, 11H)-dione] |  |  |  | 0.167 to 1.57 | 48.99-81.93% |  | significant increase | minimal toxicity | not toxic
3 | O=C1Nc2ccc(-c3cc(C(F)(F)F)cc(C(F)(F)F)c3)cc2C(=O)N2CCN(C(=O)COc3ccc(OC(F)(F)F)cc3I)C[C@@H]12 [Example 187, (S)-8-(3,5-bis(trifluoromethyl)phenyl)-2-(2-(2-iodo-4-(trifluoromethoxy)phenoxy)acetyl)-1,3,4,12a-tetrahydrobenzo[e]pyrazino[1,2-a][1,4]diazepine-6,12 (2H, 11H)-dione] |  |  |  | 0.128 to 0.568 | 87.28-147.65% |  | significant increase | minimal toxicity | not toxic

Reference: patent US20250134907A1, “FUSED DIAZEPINES AS AGONISTS OF THE INSULIN-LIKE 3 (INSL3) PEPTIDE RECEPTOR RXFP2 AND METHODS OF USE THEREOF” (The United States of America,as represented by the …, priority 2022, published 2025)
